Laboratory results as given in patent publication US6562796B2, “Derivatives of polyene macrolides and preparation and use thereof” (Micrologix Biotech Inc., priority 2000, dated 2003).
Marks after values point to notes of the source that are not given here.

Columns and labels:
Candida albicans [1] = assay: Minimum Inhibitory Concentration, broth dilution (NCCLS M27-A); type: cell-based
Protocol: Of course, compounds having MICs on the low end of these ranges, or even lower, are preferred. […] Toxicity is less of a concern for typical administration, as is water solubility.
(§1) For each compound Minimum Inhibitory Concentrations (MIC) were determined as described in Reference Method for Broth Dilution Antifungal Susceptibility Testing of Yeasts; Approved Standard; NCCLS document M27-A (ISBN 1-56238-328-0); NCCLS, 940 West Valley Road, Suite 1400, Wayne, Pa. 19087, 1997. […] Ten microliter samples were removed from the corresponding wells and deposited onto blood agar plates. Plates were incubated at 35° C. for 48 hours. The highest compound dilution at which no colonies are apparent on the plate was considered the MFC. Maximum non-lethal dose (NLD) data were also obtained for each product by initially intravenously administering a single 16 mg/kg dose to each of 4 mice in several groups. After review of findings, higher or lower doses were administered and a maximum non-lethal dose was determined. Ed50 data were also obtained for each compound. Efficacy was evaluated in mice injected with C. albicans. Therapeutic efficacy was defined as a 2 log reduction in kidney cfu relative to mean vehicle control.

Candida albicans [2] = assay: Minimum Fungicidal Concentration, plating from MIC wells on blood agar; type: cell-based; conditions: blood agar plates, 35° C., 48 hours
Protocol: as §1

C. albicans = assay: Efficacy in mice injected with C. albicans (kidney cfu reduction); type: in vivo, Candida albicans; conditions: for ED50: Candida albicans, mice injected with C. albicans, efficacy = 2 log reduction in kidney cfu relative to mean vehicle control, read-out: ED50 Kidney CFU Red.; for level of Candida albicans in the kidneys of mice (FIG. 1): treated mice, compared with AME
Protocol: as §1

mice [3] = conditions: cited from earlier work
mice [4] = assay: Maximum non-lethal dose, single intravenous dose in mice; type: in vivo
Protocol: as §1

rats = conditions: compared with amphotericin B; cited from earlier work
dogs = conditions: compared with amphotericin B; cited from earlier work
[5] = tested on: patients with systemic fungal infections; conditions: human, in vivo; cited from earlier work

## C[C@@H]1[C@H](O)[C@@H](C)/C=C/C=C/C=C/C=C/C=C/C=C/C=C/[C@H](O[C@@H]2O[C@H](C)[C@@H](O)[C@H](N)[C@@H]2O)C[C@@H]2O[C@](O)(C[C@@H](O)C[C@@H](O)[C@H](O)CC[C@@H](O)C[C@@H](O)CC(=O)O[C@H]1C)C[C@H](O)[C@H]2C(=O)O [AmB, amphotericin B, reference compound]
Candida albicans [1]
  Micro. Data (DLM/CJ) MIC: 0.5
Candida albicans [2]
  Micro. Data (DLM/CJ) MFC: 2
C. albicans
  ED50: 3.58 mg/kg
Mice [3]
  NLD (maximum non-lethal dose), literature value: 2-4* mg/kg
Water solubility
  Water Sol.: negligible

## COC(=O)C1C2C[C@@H](OC3O[C@H](C)[C@@H](O)[C@H](NC[C@@]4(O)OC[C@@H](O)[C@@H](OC5O[C@H](CO)[C@H](O)[C@H](O)[C@H]5O)[C@@H]4O)[C@@H]3O)/C=C/C=C/C=C/C=C/C=C/C=C/C=C/[C@H](C)[C@@H](O)[C@@H](C)[C@H](C)OC(=O)C[C@H](O)C[C@H](O)CC[C@@H](O)[C@H](O)C[C@H](O)C[C@](O)(C[C@@H]1O)O2 (stereo partly shown) [Compound C2]
Candida albicans [1]
  Micro. Data (DLM/CJ) MIC: 2
Candida albicans [2]
  Micro. Data (DLM/CJ) MFC: 2
Mice [4]
  NLD (maximum non-lethal dose): >64 mg/kg
C. albicans
  ED50: < 3 mg/kg
  level of Candida albicans in the kidneys of mice (FIG. 1): significantly lower
Water solubility
  Water Sol.: >16 mg/mL

## COC(=O)C1C2C[C@@H](OC3O[C@H](C)[C@@H](O)[C@H](NC[C@@]4(O)OC[C@@H](O)[C@H](O)[C@@H]4O)[C@@H]3O)/C=C/C=C/C=C/C=C/C=C/C=C/C=C/[C@H](C)[C@@H](O)[C@@H](C)[C@H](C)OC(=O)C[C@H](O)C[C@H](O)CC[C@@H](O)[C@H](O)C[C@H](O)C[C@](O)(C[C@@H]1O)O2 (stereo partly shown) [Compound C1, N-tagatopyranose-amphotericin B methyl ester]
Candida albicans [1]
  Micro. Data (DLM/CJ) MIC: 2
Candida albicans [2]
  Micro. Data (DLM/CJ) MFC: 2
Mice [4]
  NLD (maximum non-lethal dose): >64 mg/kg
C. albicans
  ED50: < 3 mg/kg
  level of Candida albicans in the kidneys of mice (FIG. 1): significantly lower
Water solubility
  Water Sol.: >16 mg/mL

## COC(=O)[C@H]1[C@@H]2C[C@@H](O[C@@H]3O[C@H](C)[C@@H](O)[C@H](N)[C@@H]3O)/C=C/C=C/C=C/C=C/C=C/C=C/C=C/[C@H](C)[C@@H](O)[C@@H](C)[C@H](C)OC(=O)C[C@H](O)C[C@H](O)CC[C@@H](O)[C@H](O)C[C@H](O)C[C@](O)(C[C@@H]1O)O2 [AME, amphotericin B methyl ester]
Candida albicans [1]
  Micro. Data (DLM/CJ) MIC: 1
Candida albicans [2]
  Micro. Data (DLM/CJ) MFC: 2
rats
  acute, nephro and hepto toxicity: lower acute, nephro and hepto toxicity than amphotericin B
dogs
  acute, nephro and hepto toxicity: lower acute, nephro and hepto toxicity than amphotericin B
[5]
  neurological toxicity in clinical trial: many patients developed progressive neurological dysfunction associated with white matter degeneration
